{"source": "patent US7595395B2", "about": "“Gabaergic agents to treat memory deficits” (priority 2005, dated 2009)", "biological_target": "T1, α1β3γ2 benzodiazepine receptor GABA(A) isoform (UniProt P14867+P18507)", "T1 sequence (P14867 1-456)": "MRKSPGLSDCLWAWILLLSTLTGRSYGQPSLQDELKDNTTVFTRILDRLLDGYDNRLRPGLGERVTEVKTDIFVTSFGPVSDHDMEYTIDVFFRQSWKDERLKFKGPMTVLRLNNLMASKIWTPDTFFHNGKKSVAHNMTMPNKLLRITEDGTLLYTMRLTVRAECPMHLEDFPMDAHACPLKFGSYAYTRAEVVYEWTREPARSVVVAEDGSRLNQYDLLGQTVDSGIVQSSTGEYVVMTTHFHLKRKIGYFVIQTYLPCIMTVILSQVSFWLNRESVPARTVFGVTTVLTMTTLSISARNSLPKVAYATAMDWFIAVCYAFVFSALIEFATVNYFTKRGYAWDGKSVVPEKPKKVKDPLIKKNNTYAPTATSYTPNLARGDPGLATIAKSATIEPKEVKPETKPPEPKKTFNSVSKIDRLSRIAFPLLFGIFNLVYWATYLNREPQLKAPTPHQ", "T1 sequence (P18507 1-475)": "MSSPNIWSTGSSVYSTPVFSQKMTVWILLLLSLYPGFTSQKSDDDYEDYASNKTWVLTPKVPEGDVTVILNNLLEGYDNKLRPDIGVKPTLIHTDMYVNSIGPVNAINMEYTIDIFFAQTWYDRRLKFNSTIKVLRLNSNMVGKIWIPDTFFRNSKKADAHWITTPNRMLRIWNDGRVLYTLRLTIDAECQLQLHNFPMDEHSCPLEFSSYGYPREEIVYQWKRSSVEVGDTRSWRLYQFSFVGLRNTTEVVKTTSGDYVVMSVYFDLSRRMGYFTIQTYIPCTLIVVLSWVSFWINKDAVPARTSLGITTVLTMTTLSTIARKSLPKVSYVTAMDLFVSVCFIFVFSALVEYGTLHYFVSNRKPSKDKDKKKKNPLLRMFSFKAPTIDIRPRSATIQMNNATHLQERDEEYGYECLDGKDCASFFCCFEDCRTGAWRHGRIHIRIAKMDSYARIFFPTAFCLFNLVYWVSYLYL", "assay": "Radioligand competition binding, α1β3γ2 BzR/GABA(A) isoform", "design": "rows headed: Ki α1 (in words); other: text; HEK-T cells (Roth et al.); species or system human and rat", "settings": "HEK-T cells (Roth et al.)", "procedure": "The affinity of all ligands at the 6 major recombinant GABAA/BzR subtypes was measured by competition for [^3H]Ro15-1788 binding to HEK-T cells expressing both human and rat GABAA/Bz receptors of composition α1β2γ2 (α1), α2β2γ2 (α2), α3β2γ2 (α3), α4β2γ2 (α4), α5β2γ2 (α5) and α6β2γ2 (α6). It is well known that the β2 and β3 subunits can be interchanged with no effect on Bz ligand affinity or efficacy. […] These studies are similar to those performed in the laboratory of Bryan Roth who has already expressed the receptors employing the work of Kucken et. al. and Gray et. al.\nIn brief, for membrane preparations, the cells were scraped on to the ice and diluted into 5 mL of phosphate buffered saline (pH=7.40) and cells pelleted by centrifugation for 5 min. at 4° C. The pellet was resuspended in 1 mL of 50 mM Tris-acetate buffer (pH 7.4) and centrifuged at 18,000 g for 20 min. […] Each pellet were diluted to 6 mL and then 100 μL of membranes were incubated with approximately 1 nM final concentration of [^3H]Ro 15-1788 in a total volume of 250 μL together with serial dilutions of test compound for 90 min. on ice. The membranes were harvested in polyethyleneimine-pretreated Whatman GF/C filters and after drying and addition of scintillation cocktail, counted in a scintillation counter. […]", "data": [{"compound": "CCc1ccc2c(c1)C(=O)N(C)Cc1c(C(=O)OCCCOC(=O)c3ncn4c3CN(C)C(=O)c3cc(CC)ccc3-4)ncn1-2", "note": "[XLi356, 1,3-Bis(8-ethyl-5,6-dihydro-5-methyl-6-oxo-4H-imidazo[1,5a][1,4]benzodiazepine-3-carboxy)propyl diester]", "values": [{"measurement": "Ki α1 (in words)", "result": "no affinity"}]}]}
